Measured values reported in BindingDB's records for doi:10.7270/Q2TX3CTT (Broad Institute, 2010).

Target: Glycogen synthase kinase-3 beta (Homo sapiens, UniProt P49841)
Experiment: concentration-response blocking of human GSK3B – biochemical, luminescence, cell-free homogeneous, retest, dose response (AID 434954)

Chain of Glycogen synthase kinase-3 beta (P49841 whole entry): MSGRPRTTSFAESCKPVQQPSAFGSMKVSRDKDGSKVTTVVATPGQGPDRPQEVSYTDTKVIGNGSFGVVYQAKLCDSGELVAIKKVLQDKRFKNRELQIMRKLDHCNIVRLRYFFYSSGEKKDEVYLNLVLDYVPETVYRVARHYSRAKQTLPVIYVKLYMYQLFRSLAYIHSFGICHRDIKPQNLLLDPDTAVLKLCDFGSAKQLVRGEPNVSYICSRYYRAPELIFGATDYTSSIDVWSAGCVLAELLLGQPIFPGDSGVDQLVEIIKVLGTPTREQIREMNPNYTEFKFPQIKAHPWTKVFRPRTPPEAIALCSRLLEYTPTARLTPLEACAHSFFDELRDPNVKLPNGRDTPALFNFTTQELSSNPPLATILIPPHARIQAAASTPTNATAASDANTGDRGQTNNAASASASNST

Going from `CCCCC(=O)Nc1ncc(S(=O)(=O)c2ccc([N+](=O)[O-])cc2)s1` [N-[5-(4-nitrophenyl)sulfonyl-2-thiazolyl]pentanamide] to `O=C(Cc1ccc(Cl)cc1)Nc1ncc([N+](=O)[O-])s1` [2-(4-chlorophenyl)-N-(5-nitro-1,3-thiazol-2-yl)ethanamide], the EC50 falls from > 300 µM to 30.4 µM. The second is the more potent here.

Compared with `CCCCc1cc(=O)oc2cc(O)cc(O)c12` [4-butyl-5,7-dihydroxy-2H-chromen-2-one], `COC(=O)C(C)Oc1cc(OC(C)C(=O)OC)c2c(-c3ccccc3)cc(=O)oc2c1` (stereo unspecified) [methyl 2-[5-(1-methoxy-1-oxopropan-2-yl)oxy-2-oxo-4-phenylchromen-7-yl]oxypropanoate] is higher in EC50: 15.2 µM for the first, > 300 µM for the second.

Going from `Cc1ccc(NC2=CC(=O)CC(C)(C)C2)cc1F` [MLS001198284] to `Cc1[nH]nc2c1C(c1ccc(F)cc1)C1C(=O)CC(C)(C)CC1=N2` (stereo unspecified) [4-(4-fluorophenyl)-3,7,7-trimethyl-1,4,6,7,8,9-hexahydro-5H-pyrazolo[3,4-b]quinolin-5-one], the EC50 falls from > 300 µM to 3.93 µM. The second is the more potent here.

`O=C(NN=Cc1cccnc1)c1cc(-c2ccccc2)nc2c(Cl)cccc12` [MLS001230128] and `CC(=O)Nc1cccc(Nc2nc(-c3ccccc3)nc3ccccc23)c1` [SMR000384461] cannot be ordered by EC50: > 300 µM for the first, > 300 µM for the second.

`Oc1ccc(CN=Nc2ccc(C(F)(F)F)cn2)cc1O` [(4Z)-2-hydroxy-4-[[2-[5-(trifluoromethyl)pyridin-2-yl]hydrazinyl]methylidene]cyclohexa-2,5-dien-1-one] and `Clc1ccc(CN=Nc2ncnc3nc[nH]c23)cc1` [MLS000419189] are within 1.5-fold of each other in EC50: 16.1 µM for the first, 20.4 µM for the second.

`COCCCn1c(-c2ccc(OC)cc2)nc2nc3ccccc3nc21` and `COc1ccc(-c2nn(-c3ccccc3)cc2C(=O)O)cc1` [SMR000015534] cannot be ordered by EC50: > 300 µM for the first, > 300 µM for the second.

`O=C(CN1C(=O)c2ccccc2C1=O)Nc1ccccc1F` [2-[1,3-bis(oxidanylidene)isoindol-2-yl]-N-(2-fluorophenyl)ethanamide] and `O=C(COc1ccc2ccccc2c1)Nc1cccc2c1C(=O)NC2=O` [MLS000375387] cannot be ordered by EC50: > 300 µM for the first, > 300 µM for the second.

`Cc1c(CCOC(=O)CC23CC4CC(CC(C4)C2)C3)sc[n+]1CC(=O)c1ccc(Br)cc1` [SMR000155561] and `CCOC(=O)c1ccc(NC(=O)CSc2nnc(C3CC3)n2CC)cc1` [MLS000121467] cannot be ordered by EC50: > 300 µM for the first, > 300 µM for the second.

`O=[N+]([O-])c1ccccc1Oc1ccccc1Cl` and `COc1cccc2cc(CC(=O)c3ccccc3)c(=O)oc12` [8-methoxy-3-(2-oxo-2-phenylethyl)-2H-chromen-2-one] cannot be ordered by EC50: > 300 µM for the first, > 300 µM for the second.

`O=C(O)c1cc(C2CC2)nc2ccccc12` [2-cyclopropyl-4-quinolinecarboxylic acid] and `Cn1c(=S)n(CCC(=O)O)c2ccccc21` [SMR000273673] cannot be ordered by EC50: > 300 µM for the first, > 300 µM for the second.

`Cn1nc2c3ccccc3n(Cc3ccc(F)cc3)c2nc1=S` and `O=C1/C(=C\c2ccc(O)cc2)SC(=S)N1Cc1ccccc1` [(5E)-5-[(4-hydroxyphenyl)methylidene]-3-(phenylmethyl)-2-sulfanylidene-1,3-thiazolidin-4-one] cannot be ordered by EC50: > 300 µM for the first, > 300 µM for the second.

`N#Cc1c(Cl)nc(-c2cccnc2)nc1-c1ccccc1` [MLS001165453] and `CNc1nc(-c2ccccc2)nc(-c2ccccc2)c1C#N` [MLS000539511] cannot be ordered by EC50: > 300 µM for the first, > 300 µM for the second.

`CCc1ccccc1NC(=O)CSc1nnc(-c2ccncc2)o1` [SMR000324383] and `COCCn1c(SCC(=O)Nc2ccc(S(=O)(=O)N(C)C)cc2)nc2ccccc21` [MLS000567111] cannot be ordered by EC50: > 300 µM for the first, > 300 µM for the second.

First: O=C1NCCCc2c1oc1cc(Br)c(O)c(Br)c21 [MLS000043345]
Second: Cn1nnc2sc3c(c2c1=O)CCCC3 [MLS000557299]
The EC50 of the first is 1.7-fold higher: 40.7 µM for the first, 23.3 µM for the second. The second is the more potent here.

`Nc1nc(N)nc(-c2cc(Cl)ccc2Cl)n1` [SMR000471621] and `CNc1nc(N)nc(-c2cc(Cl)ccc2OC)n1` [6-(5-chloranyl-2-methoxy-phenyl)-N2-methyl-1,3,5-triazine-2,4-diamine] cannot be ordered by EC50: > 300 µM for the first, > 300 µM for the second.

Going from `Nc1nc(NCC2CCCO2)nc(Nc2cccc(F)c2)c1[N+](=O)[O-]` (stereo unspecified) [N4-(3-fluorophenyl)-5-nitro-N2-(2-oxolanylmethyl)pyrimidine-2,4,6-triamine] to `Fc1cccc(Nc2ncnc3n[nH]cc23)c1` [MLS001033418], the EC50 rises from 7.14 µM to 32.4 µM (4.5-fold). The first is the more potent here.

`CN1CCc2[nH]c3ccc(C(=O)NN)cc3c2C1` [SMR000131639] and `CCSc1nc(N)c2c3c(sc2n1)CN(C)CC3` [MLS000082600] cannot be ordered by EC50: > 300 µM for the first, > 300 µM for the second.

Going from `Fc1ccccc1CN=Nc1ncnc2nc[nH]c12` to `COc1ccc(-c2nn(-c3ccccc3)cc2CN=Nc2ccccn2)cc1` [MLS000336205], the EC50 rises from 11.2 µM to > 300 µM.

Going from `COc1ccc(-c2cc(C(=O)N3CCN(C(=O)c4ccco4)CC3)[nH]n2)cc1` [SMR000623613] to `COc1ccc2nc(C)cc(N3CCN(c4ccccc4)CC3)c2c1` [SMR000595708], the EC50 falls from > 300 µM to 29.5 µM.

Compared with `CCn1c(SCc2c(F)cccc2Cl)nnc1-c1ccco1` [3-[(2-chloro-6-fluorophenyl)methylsulfanyl]-4-ethyl-5-(furan-2-yl)-1,2,4-triazole], `CCCn1c(SCC(=O)Nc2ccc(Cl)cn2)nnc1C1CC1` is lower in EC50: > 300 µM for the first, 24 µM for the second. The second is the more potent here.

First: CC1(C)CC(CC(=O)NC(=S)Nc2ccc([N+](=O)[O-])cc2)C(=O)O1 (stereo unspecified) [2-(5,5-dimethyl-2-oxotetrahydro-3-furanyl)-N-{[(4-nitrophenyl)amino]carbonothioyl}acetamide]
Second: O=C(CN1CCN(S(=O)(=O)c2ccccc2)CC1)Nc1ccc([N+](=O)[O-])cc1 [2-[4-(benzenesulfonyl)-1-piperazinyl]-N-(4-nitrophenyl)acetamide]
The EC50 of the first is lower: 26.7 µM for the first, > 300 µM for the second.

`CC1(C)CC(CCNC(=O)CCl)(c2ccccc2)CCO1` (stereo unspecified) [MLS000779552] and `Cc1c(C(=O)O)sc2c1c(=O)n(Cc1ccccc1)c(=O)n2C` [1,5-dimethyl-2,4-dioxo-3-(phenylmethyl)-6-thieno[2,3-d]pyrimidinecarboxylic acid] cannot be ordered by EC50: > 300 µM for the first, > 300 µM for the second.

`CCOc1cc(C2c3c(C)n[nH]c3C(=O)N2c2ccc(C)cc2)ccc1O` (stereo unspecified) [SMR000035605] and `Cc1cccc(C(=O)Nc2ccc(O)c3c(=O)cc(-c4ccccc4Cl)oc23)c1` cannot be ordered by EC50: > 300 µM for the first, > 300 µM for the second.

Compared with `O=[N+]([O-])c1ccc(N2CCCCCC2)c([N+](=O)[O-])c1` [1-(2,4-Dinitro-phenyl)-azepane], `O=NCc1ccc(N2CCCC2)c([N+](=O)[O-])c1` is lower in EC50: > 300 µM for the first, 5.66 µM for the second. The second is the more potent here.

`O=C(CSc1nnc(CNC(=O)c2cccc(C(F)(F)F)c2)o1)NC1CCCCC1` and `Nc1ncnc(Nc2cccc(C(F)(F)F)c2)n1` cannot be ordered by EC50: > 300 µM for the first, > 300 µM for the second.

Going from `Oc1ccc(CNCC2COc3ccccc3O2)cc1` (stereo unspecified) [SMR000145120] to `O=C(Nc1ccc(O)c2c(=O)cc(-c3ccccc3Cl)oc12)c1ccc(F)cc1` [N-[2-(2-chlorophenyl)-5-oxidanyl-4-oxidanylidene-chromen-8-yl]-4-fluoranyl-benzamide], the EC50 falls from > 300 µM to 13.9 µM. The second is the more potent here.

Compared with `CN(C)Cc1c(C(=O)NN=Cc2ccncc2)nnn1-c1nonc1N`, `CCCN(CCC)Cc1c(C(=O)NN=Cc2c[nH]c3ccccc23)nnn1-c1nonc1N` is higher in EC50: 6.17 µM for the first, > 300 µM for the second.

First: OCCCNc1nccc(-c2cc(Nc3cccc(Cl)c3)ncn2)n1 [3-[[4-[6-[(3-chlorophenyl)amino]pyrimidin-4-yl]pyrimidin-2-yl]amino]propan-1-ol]
Second: c1cncc(CNc2nc(-c3cccnc3)nc3ccccc23)c1 [2-pyridin-3-yl-N-(pyridin-3-ylmethyl)quinazolin-4-amine]
The EC50 of the first is lower: 0.0779 µM for the first, > 300 µM for the second. The first is the more potent here.

Compared with `COc1ccc(C(=O)/C=C2/C(=O)Nc3ccccc32)c(OC)c1` [SMR000543845], `CCOC(=O)c1cnc2ccc(OC)cc2c1Nc1ccc2c(c1)OCCO2` [SMR000196288] is lower in EC50: > 300 µM for the first, 16.7 µM for the second.

`O=C(C1CCCN(S(=O)(=O)c2ccccc2)C1)N1CCN(c2ncccn2)CC1` (stereo unspecified) [[1-(phenylsulfonyl)piperidin-3-yl]-(4-pyrimidin-2-ylpiperazin-1-yl)methanone] and `CCCCCC(=O)N1CCN(S(=O)(=O)c2ccc3c(c2)OCCCO3)CC1` [MLS001161784] cannot be ordered by EC50: > 300 µM for the first, > 300 µM for the second.

`CC(C)(C)NC(=O)NC(=O)CSc1nncs1` [N-[(tert-butylamino)-oxomethyl]-2-(1,3,4-thiadiazol-2-ylthio)acetamide] and `CCN(CC)Cc1c(C(=O)OC)nnn1-c1nonc1N` [MLS000085717] cannot be ordered by EC50: > 300 µM for the first, > 300 µM for the second.

Going from `Cc1ccc2c(c1)cc1c(O)nncn12` [MLS000551564] to `CC1(C)Nc2ccc(O)cc2-c2c1ssc2=S` [SMR000038969], the EC50 falls from > 300 µM to 21.4 µM.

Going from `COc1cc2ncnc(Nc3ccc4c(c3)OCO4)c2cc1OC` to `COc1cc(C=NNC(=O)c2sc(N)c(C#N)c2C)ccc1O` [MLS000540774], the EC50 falls from > 300 µM to 0.436 µM. The second is the more potent here.

`CC1=C(C(=O)N2CCCCC2)C(c2cccs2)C2C(=O)CCCC2=N1` (stereo unspecified) [2-methyl-3-piperidin-1-ylcarbonyl-4-thiophen-2-yl-4,6,7,8-tetrahydro-1H-quinolin-5-one] and `O=C(NCCCN1CCCCC1)c1ccc2c(c1)NC(=O)C(N1CCCCC1)S2` (stereo unspecified) [3-oxo-2-piperidin-1-yl-N-(3-piperidin-1-ylpropyl)-4H-1,4-benzothiazine-6-carboxamide] cannot be ordered by EC50: > 300 µM for the first, > 300 µM for the second.

`Cc1csc2c(=O)n(CCO)c(=O)[nH]c12` [MLS000861875] and `CC(C)CCn1c(CN2CCN(c3cccc(Cl)c3)CC2)nc2c1c(=O)n(C)c(=O)n2C` [SMR000017148] cannot be ordered by EC50: > 300 µM for the first, > 300 µM for the second.

`Cc1ccc(OCCN(C)C(=O)C2CCC(=O)N(CCCN3CCOCC3)C2)cc1` (stereo unspecified) and `O=C(Oc1ccc(Cl)cc1)N1CCCCC1` [(4-chlorophenyl) piperidine-1-carboxylate] cannot be ordered by EC50: > 300 µM for the first, > 300 µM for the second.

First: NS(=O)(=O)c1ccc(-c2ccc(/C=C3\NC(=S)NC3=O)o2)cc1
Second: O=c1cc(-c2ccccc2Cl)oc2c(NS(=O)(=O)c3cccs3)ccc(O)c12 [MLS000518499]
The EC50 of the first is lower: 46.5 µM for the first, > 300 µM for the second.

`O=C(NN=Cc1ccc(-c2ccc(Cl)c(C(=O)O)c2)o1)c1cc2c(ccc3ccccc32)o1` [5-[5-[(benzo[e][1]benzofuran-2-carbonylhydrazinylidene)methyl]furan-2-yl]-2-chlorobenzoic acid] and `O=C(NC1CCCCC1)C(c1ccc(F)cc1)N(Cc1ccccc1)C(=O)CN1C(=O)c2ccccc2S1(=O)=O` (stereo unspecified) [N-cyclohexyl-2-(4-fluorophenyl)-2-[[1-oxo-2-(1,1,3-trioxo-1,2-benzothiazol-2-yl)ethyl]-(phenylmethyl)amino]acetamide] cannot be ordered by EC50: > 300 µM for the first, > 300 µM for the second.
